Values quoted from earlier work as cited in patent publication US9376364B2, “Acid/salt separation” (PURAC BIOCHEM B.V., priority 2011, dated 2016).

Details: at 20 Celsius

[Cl-].[Cl-].[Mg+2] [MgCl2, magnesium chloride]
saturation point of MgCl2 in water: 55 g/100 g water
